This is an account of results in the supplement of paper PMC11003180.

Test in all cases: drug sensitivity score (DSS) from 5-dose viability curve (DSS (area-based score, 0 = no response)); higher = more sensitive (stronger viability inhibition); extreme values may be limits of the assay
The test system of experiment [1] is MDCK wild-type - doxycycline. The settings on record: doxycycline: none; 72 h. The method in brief: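 Viability of parental MDCK cells cultured without doxycycline was measured by CellTiter-Glo luminescence and scaled per plate between vehicle and positive controls. The cells had been exposed for 72 h to an oncology library of 528 drugs at five doses (1-10,000 nM). Drug sensitivity scores were calculated from dose-response curve fits in the Breeze pipeline.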

Experiment [2] has as its system MDCK p60AmotL2-inducible + doxycycline (p60AmotL2 expressing). Particulars: doxycycline: 10 ng/mL; 72 h. In a few lines:
(§1)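 Two MDCK lines, parental and doxycycline-inducible, received doxycycline at 10 ng/mL in the medium before being plated at 2000 cells/well onto a pre-spotted 384-well oncology library of 528 drugs at five doses (1-10,000 nM). Incubation lasted 72 h at 37 °C. Viability was read by CellTiter-Glo luminescence, scaled per plate between vehicle and positive controls, and converted to drug sensitivity scores through Breeze curve fitting.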

The subject of experiment [3] is MDCK wild-type + doxycycline. The settings on record: doxycycline: 10 ng/mL; 72 h. The method in brief:
as §1

Take `O=C(O)c1ccc2c(c1)nc(Nc1cccc(Cl)c1)c1ccncc12` [Silmitasertib]: the drug sensitivity score in experiment [1] was 0; in experiment [2] it was 1.6; in experiment [3], 1.4.

Take `CO[C@H]1C[C@@H]2CC[C@@H](C)[C@@](O)(O2)C(=O)C(=O)N2CCCC[C@H]2C(=O)O[C@H]([C@H](C)C[C@@H]2CC[C@@H](O)[C@H](OC)C2)CC(=O)[C@H](C)/C=C(\C)[C@@H](O)[C@@H](OC)C(=O)[C@H](C)C[C@H](C)/C=C/C=C/C=C/1C` [Sirolimus]: the drug sensitivity score in experiment [1] is 1.9; in experiment [2], 7.6; in experiment [3] it was 2.3.

Regarding `COCCNCc1ccc(-c2cc3nccc(Oc4ccc(NC(=O)C5(C(=O)Nc6ccc(F)cc6)CC5)cc4F)c3s2)nc1` [Sitravatinib], the drug sensitivity score amounted to 0 in experiment [1], 1.7 in experiment [2] and 1.2 in experiment [3].

On to `Cc1c(C(=O)Nc2ccc(N3C[C@@H](C)O[C@@H](C)C3)nc2)cccc1-c1ccc(OC(F)(F)F)cc1` [Sonidegib], for which the values for the drug sensitivity score in experiment [1], in experiment [2] and in experiment [3] were 0.6, 0 and 0, respectively.

For the compound `C=CCN(/C=C1/C(=O)O[C@H](COC)[C@@]2(C)C1=C(O)C(=O)C1=C2[C@H](OC(C)=O)C[C@]2(C)C(=O)CC[C@@H]12)CC=C` [Sonolisib], the drug sensitivity score in experiment [1], in experiment [2] and in experiment [3] was 0 each time.

For `CNC(=O)c1cc(Oc2ccc(NC(=O)Nc3ccc(Cl)c(C(F)(F)F)c3)cc2)ccn1` [Sorafenib], the drug sensitivity score in experiment [1], in experiment [2] and in experiment [3] was 0 each time.

Consider `CN1CCN(c2nc(C3=C(c4c[nH]c5ccccc45)C(=O)NC3=O)c3ccccc3n2)CC1` [Sotrastaurin], for which the drug sensitivity score in experiment [1] worked out at 0; in experiment [2], 0.3; in experiment [3], 0.

As to `C=CC(=O)Nc1cccc(Nc2nc(Nc3ccc(OCCOC)cc3)ncc2F)c1` [Spebrutinib], the values for the drug sensitivity score in experiment [1], in experiment [2] and in experiment [3] were 0, 0.8 and 0, respectively.

Take `CC(C)n1cnc2c(NCCc3ccc(O)cc3)nc(-c3csc4ccccc34)nc21` [StemRegenin 1]: the drug sensitivity score was 2 in experiment [1], 1.5 in experiment [2] and 0.9 in experiment [3].

Take `CCN(CC)CCNC(=O)c1c(C)[nH]c(/C=C2\C(=O)Nc3ccc(F)cc32)c1C` [Sunitinib]: the drug sensitivity score in experiment [1] came out at 0; in experiment [2], 1.2; in experiment [3] it was 0.

Take `CC(C)(O)CC(=O)NCCn1ccc2ncnc(Nc3ccc(Oc4cccc(C(F)(F)F)c4)c(Cl)c3)c21` [TAK-285]: the values for the drug sensitivity score in experiment [1], in experiment [2] and in experiment [3] were 1.8, 6.4 and 3.1, respectively.

Turning to `CCS(=O)(=O)c1cccc(-c2cc(C(=O)NC3CCN(C)CC3)c(C)c3[nH]c4ncc(C)cc4c23)c1` [TAK-901], the results for the drug sensitivity score in experiment [1], in experiment [2] and in experiment [3] were 0, 1.8 and 0.7, respectively.

In the case of `Cc1cccc(-c2[nH]c(CNc3ccccc3F)nc2-c2ccc3ncnn3c2)n1` [TEW-7197], the drug sensitivity score in experiment [1] was determined as 1.1; in experiment [2] it was 4.3; in experiment [3], 0.

Regarding `Nc1nc(N)c2nc(-c3cccc(O)c3)c(-c3cccc(O)c3)nc2n1` [TG100-115], the drug sensitivity score in experiment [1], in experiment [2] and in experiment [3] was 0 each time.

Turning to `CC(C)Oc1ccc(-c2nn([C@@H](C)c3oc4ccc(F)cc4c(=O)c3-c3cccc(F)c3)c3ncnc(N)c23)cc1F` [TGR-1202], the drug sensitivity score in experiment [1] worked out at 0; in experiment [2] it was 3.9; in experiment [3], 2.1.

For the compound `Cc1cc(C(C)Nc2ccccc2)c2nc(N3CCOCC3)cc(=O)n2c1` (stereo not drawn) [TGX-221], the results for the drug sensitivity score in experiment [1], in experiment [2] and in experiment [3] were 0, 0.3 and 0.4, respectively.

Regarding `Nc1nc(NC2CC2)cc(-c2cccc(Cl)c2Cl)n1` [TH588], the drug sensitivity score in experiment [1], in experiment [2] and in experiment [3] was 0 in each case.

Regarding `Clc1ccccc1C(c1ccccc1)(c1ccccc1)n1cccn1` [TRAM-34], the drug sensitivity score in experiment [1], in experiment [2] and in experiment [3] was 0 throughout.

In the case of `CC(=O)Nc1ccc(C(=O)Nc2ccccc2N)cc1` [Tacedinaline], the drug sensitivity score in experiment [1], in experiment [2] and in experiment [3] was 0 each time.

Consider `C=CC[C@@H]1/C=C(\C)C[C@H](C)C[C@H](OC)[C@H]2O[C@@](O)(C(=O)C(=O)N3CCCC[C@H]3C(=O)O[C@H](/C(C)=C/[C@@H]3CC[C@@H](O)[C@H](OC)C3)[C@H](C)[C@@H](O)CC1=O)[C@H](C)C[C@@H]2OC` [Tacrolimus], for which the drug sensitivity score in experiment [1], in experiment [2] and in experiment [3] was 0 throughout.

With `CN(C(=O)c1ccc(F)cc1C(F)(F)F)C1CCN(c2nnc(-c3ccnn3C)c3ccccc23)CC1` [Taladegib], the drug sensitivity score in experiment [1], in experiment [2] and in experiment [3] was 0 throughout.

For the compound `Cn1ncnc1[C@H]1c2n[nH]c(=O)c3cc(F)cc(c23)N[C@@H]1c1ccc(F)cc1` [Talazoparib], the values for the drug sensitivity score in experiment [1], in experiment [2] and in experiment [3] were 0, 2.3 and 0, respectively.

In the case of `C[C@@H]1CN(Cc2ccc(F)cc2)[C@@H](C)CN1C(=O)c1cc2c(C(=O)C(=O)N(C)C)cn(C)c2cc1Cl` [Talmapimod], the drug sensitivity score in experiment [1], in experiment [2] and in experiment [3] was 0 throughout.

`COc1cc(Nc2ncc(F)c(Nc3ccc4c(n3)NC(=O)C(C)(C)O4)n2)cc(OC)c1OC` [Tamatinib]: the drug sensitivity score in experiment [1] was 0; in experiment [2], 1.6; in experiment [3] it was 0.

For the compound `CC/C(=C(\c1ccccc1)c1ccc(OCCN(C)C)cc1)c1ccccc1` [Tamoxifen], the drug sensitivity score in experiment [1] was 0; in experiment [2] it was 1; in experiment [3], 0.

Take `COc1cc2c(N3CCN(C(=O)Nc4ccc(OC(C)C)cc4)CC3)ncnc2cc1OCCCN1CCCCC1` [Tandutinib]: the drug sensitivity score in experiment [1], in experiment [2] and in experiment [3] was 0 throughout.

As for `O[C@H]1CC[C@H](Nc2ncc3nc(Nc4c(F)cc(F)cc4F)n([C@H]4CCOC4)c3n2)CC1` [Tanzisertib], the drug sensitivity score in experiment [1] was 0; in experiment [2] it was 0.9; in experiment [3] it was 0.1.

Take `C[C@@H](C(=O)O)c1ccc(-c2ccccc2)c(F)c1` [Tarenflurbil]: the drug sensitivity score in experiment [1], in experiment [2] and in experiment [3] was 0 throughout.

`Cc1nc(-c2cn3c(n2)-c2ccc(-c4cnn(C(C)(C)C(N)=O)c4)cc2OCC3)n(C(C)C)n1` [Taselisib]: the results for the drug sensitivity score in experiment [1], in experiment [2] and in experiment [3] were 0, 6.3 and 0.3, respectively.

Regarding `COc1cccc2c1c(O)c(C(=O)N(C)c1ccc(C(F)(F)F)cc1)c(=O)n2C` [Tasquinimod], the drug sensitivity score in experiment [1], in experiment [2] and in experiment [3] was 0 in each case.

As to `CCN(c1cc(-c2ccc(CN3CCOCC3)cc2)cc(C(=O)NCc2c(C)cc(C)[nH]c2=O)c1C)C1CCOCC1` [Tazemetostat], the drug sensitivity score turned out to be 0 in experiment [1], 2.1 in experiment [2] and 0 in experiment [3].

Regarding `CNC(=O)c1cc(COc2nnc(Nc3ccc(Cl)cc3)c3ccoc23)ccn1` [Telatinib], the drug sensitivity score in experiment [1], in experiment [2] and in experiment [3] was 0 in each case.

Take `Cn1nnc2c(C(N)=O)ncn2c1=O` [Temozolomide]: the drug sensitivity score in experiment [1], in experiment [2] and in experiment [3] was 0 throughout.

As to `CO[C@H]1C[C@@H]2CC[C@@H](C)[C@@](O)(O2)C(=O)C(=O)N2CCCC[C@H]2C(=O)O[C@H]([C@H](C)C[C@@H]2CC[C@@H](OC(=O)C(C)(CO)CO)[C@H](OC)C2)CC(=O)[C@H](C)/C=C(\C)[C@@H](O)[C@@H](OC)C(=O)[C@H](C)C[C@H](C)/C=C/C=C/C=C/1C` [Temsirolimus], the drug sensitivity score in experiment [1] was 0; in experiment [2], 10; in experiment [3], 2.3.

On to `COc1cc([C@@H]2c3cc4c(cc3[C@@H](O[C@@H]3O[C@@H]5CO[C@@H](c6cccs6)O[C@H]5[C@H](O)[C@H]3O)[C@H]3COC(=O)[C@H]23)OCO4)cc(OC)c1O` [Teniposide], for which the drug sensitivity score in experiment [1] was 0.9; in experiment [2] it was 2.7; in experiment [3], 1.5.

Take `CN1CCC(COc2cnc(-c3cccc(Cn4nc(-c5cccc(C#N)c5)ccc4=O)c3)nc2)CC1` [Tepotinib]: the drug sensitivity score in experiment [1] was determined as 0; in experiment [2], 0.1; in experiment [3] it was 0.
